The values that follow are results of earlier work, collected in patent US20150118313A1, “ENHANCED FOLIC ACID FLUORESCENT MATERIAL, MULTIFLUORESCENT POROUS COMPOSITIONS OF MATTER AND POTENTIAL APPLICATIONS THEREOF” (Nanologica AB, priority 2010, published 2015).

Entries after “also recorded” stand apart in the source; their conditions may differ.

The conditions of data set [1]: aqueous solvent; solubility is dependent on pH.
The conditions of data set [2]: weak acid, neutralized in the range of pH 5-7.

Turning to `Nc1nc2ncc(CNc3ccc(C(=O)N[C@@H](CCC(=O)O)C(=O)O)cc3)nc2c(=O)[nH]1` [folic acid], the “solubility in aqueous solution” value in data set [1] is listed as “poor solubility”.
Turning to `O=C(O)c1ccc(-c2c3nc(c(-c4ccc(C(=O)O)cc4)c4ccc([nH]4)c(-c4ccc(C(=O)O)cc4)c4nc(c(-c5ccc(C(=O)O)cc5)c5ccc2[nH]5)C=C4)C=C3)cc1` [TCPP, Meso-tetrakis (4-carboxyphenyl) porphyrin], in data set [2], the pKa was 6.6. Further, the “solubility in aqueous solution” value in data set [1] is “scarcely soluble; also recorded: poor solubility”.
